# From ChEMBL document CHEMBL3351302, “Design, synthesis and biological evaluation of 4-anilinothieno[2,3-d]pyrimidine-based hydroxamic acid derivatives as novel histone deacetylase inhibitors” (Bioorg Med Chem, 2014)
# pIC50: −log10 of the molar value.
# Experiments:
# Histone deacetylase 1 = Histone deacetylase 1 (Homo sapiens, UniProt Q13547); experiment: Inhibition of human recombinant full length HDAC1 using (Ac)-Lys-Tyr-Lys(-acetyl)-AMC substrate after 30 mins
# [1] = target: T1, Protein deacetylase HDAC6 (Homo sapiens, UniProt Q9UBN7); experiment: Inhibition of human recombinant full length HDAC6 using (Boc-Lys (-acetyl)-AMC substrate after 30 mins
# T1 sequence (Q9UBN7 whole entry): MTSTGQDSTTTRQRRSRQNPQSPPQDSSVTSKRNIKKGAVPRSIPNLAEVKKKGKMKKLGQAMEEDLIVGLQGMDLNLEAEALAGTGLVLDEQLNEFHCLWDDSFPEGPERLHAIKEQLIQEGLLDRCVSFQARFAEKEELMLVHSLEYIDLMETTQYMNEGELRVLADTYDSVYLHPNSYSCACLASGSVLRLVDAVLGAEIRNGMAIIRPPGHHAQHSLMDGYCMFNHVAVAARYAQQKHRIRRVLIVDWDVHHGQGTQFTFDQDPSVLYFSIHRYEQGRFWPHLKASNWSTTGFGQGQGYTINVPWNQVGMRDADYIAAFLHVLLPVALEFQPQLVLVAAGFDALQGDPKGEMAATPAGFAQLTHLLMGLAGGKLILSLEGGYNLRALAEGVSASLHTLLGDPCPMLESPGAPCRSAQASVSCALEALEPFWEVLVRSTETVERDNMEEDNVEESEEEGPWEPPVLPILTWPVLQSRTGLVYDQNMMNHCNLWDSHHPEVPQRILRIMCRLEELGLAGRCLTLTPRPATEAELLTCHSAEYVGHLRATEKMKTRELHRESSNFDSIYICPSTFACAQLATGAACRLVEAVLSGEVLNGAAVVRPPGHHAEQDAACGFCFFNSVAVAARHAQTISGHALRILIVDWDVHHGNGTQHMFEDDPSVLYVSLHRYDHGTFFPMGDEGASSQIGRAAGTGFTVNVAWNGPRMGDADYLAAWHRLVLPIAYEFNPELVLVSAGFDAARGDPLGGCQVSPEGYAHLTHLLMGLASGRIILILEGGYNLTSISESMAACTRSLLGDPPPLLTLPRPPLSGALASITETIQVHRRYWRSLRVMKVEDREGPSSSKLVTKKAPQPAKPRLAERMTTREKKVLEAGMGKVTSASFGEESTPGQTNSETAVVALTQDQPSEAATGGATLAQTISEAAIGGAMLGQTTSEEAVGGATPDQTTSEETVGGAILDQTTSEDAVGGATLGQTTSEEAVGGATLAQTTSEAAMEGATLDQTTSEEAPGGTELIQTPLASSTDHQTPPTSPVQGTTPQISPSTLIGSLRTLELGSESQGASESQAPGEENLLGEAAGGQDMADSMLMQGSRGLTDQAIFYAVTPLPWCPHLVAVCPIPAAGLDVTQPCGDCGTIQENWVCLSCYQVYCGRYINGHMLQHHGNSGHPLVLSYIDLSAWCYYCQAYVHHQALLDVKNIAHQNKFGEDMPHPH
# Histone deacetylase 3 = Histone deacetylase 3 (Homo sapiens, UniProt O15379); experiment: Inhibition of human recombinant full length HDAC3 using (Ac)-Lys-Tyr-Lys(-acetyl)-AMC substrate after 30 mins
# [2] = Antiproliferative activity against human HCT116 cells after 72 hrs by WST8 assay; type: functional, cell-based; details: HCT-116, 72 h
# [3] = Antiproliferative activity against human RPMI8226 cells after 72 hrs by WST8 assay; type: functional, cell-based; details: RPMI-8226, 72 h
# [4] = target: T2, Histone deacetylase (Homo sapiens) (UniProt Q13547+O15379+Q9UBN7+Q92769+Q9UQL6+Q8WUI4+Q9BY41+Q96DB2+P56524+Q9UKV0+Q969S8); experiment: Inhibition of HDAC in human RPMI8226 cells assessed as increase in alpha-tubulin acetylation after 24 hrs by Western blot analysis; type: cell-based; details: RPMI-8226
# [5] = target: T2, Histone deacetylase (Homo sapiens); experiment: Inhibition of HDAC in human RPMI8226 cells assessed as increase in histone H3 acetylation after 24 hrs by Western blot analysis; type: cell-based; details: RPMI-8226
# Chain of Histone deacetylase 1 (Q13547 whole entry): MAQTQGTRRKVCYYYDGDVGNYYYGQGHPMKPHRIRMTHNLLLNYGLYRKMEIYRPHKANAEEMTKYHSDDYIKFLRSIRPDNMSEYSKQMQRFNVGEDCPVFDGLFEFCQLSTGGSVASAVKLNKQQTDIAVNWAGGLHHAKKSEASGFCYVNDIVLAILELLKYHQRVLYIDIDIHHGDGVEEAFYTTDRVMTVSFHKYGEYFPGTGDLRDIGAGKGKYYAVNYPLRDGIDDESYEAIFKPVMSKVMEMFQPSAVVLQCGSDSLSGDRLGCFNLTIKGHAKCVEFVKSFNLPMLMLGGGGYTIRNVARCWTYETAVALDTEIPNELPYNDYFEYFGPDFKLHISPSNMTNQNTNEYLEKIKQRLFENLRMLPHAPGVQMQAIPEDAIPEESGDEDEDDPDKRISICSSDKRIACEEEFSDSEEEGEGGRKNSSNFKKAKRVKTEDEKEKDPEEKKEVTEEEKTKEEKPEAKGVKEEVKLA
# Chain of Histone deacetylase 3 (O15379 whole entry): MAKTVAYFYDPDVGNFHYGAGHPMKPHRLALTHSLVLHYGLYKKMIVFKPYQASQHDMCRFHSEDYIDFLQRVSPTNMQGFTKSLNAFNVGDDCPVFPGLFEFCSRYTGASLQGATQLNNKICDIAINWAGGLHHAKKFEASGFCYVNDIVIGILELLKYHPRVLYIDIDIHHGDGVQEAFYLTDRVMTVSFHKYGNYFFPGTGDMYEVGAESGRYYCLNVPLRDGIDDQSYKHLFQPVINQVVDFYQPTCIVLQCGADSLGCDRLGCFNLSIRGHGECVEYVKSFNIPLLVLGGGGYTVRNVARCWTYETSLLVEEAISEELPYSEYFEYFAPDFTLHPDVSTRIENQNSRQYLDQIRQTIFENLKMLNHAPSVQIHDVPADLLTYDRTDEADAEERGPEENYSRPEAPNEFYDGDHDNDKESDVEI
SMILES,pIC50 (Histone deacetylase 1),pIC50 [1],pIC50 (Histone deacetylase 3),inhibition [4],inhibition [5],pIC50 [2],pIC50 [3]
Cc1ccc(Nc2ncnc3sc(NC(=O)CCCCCC(=O)NO)cc23)cc1,7.85,7.71,8.03,–,–,–,–
O=C(CCCCCCC(=O)Nc1cc2c(Cl)ncnc2s1)NO,7.59,7.82,7.58,Dose-dependent effect,Dose-dependent effect,5.53,5.66
O=C(CCCCCC(=O)Nc1cc2c(Nc3ccc(F)c(Cl)c3)ncnc2s1)NO,7.45,7.62,7.42,–,–,–,–
O=C(CCCCCCC(=O)Nc1cc2c(Nc3ccc(N4CCCC4)cc3)ncnc2s1)NO,7.86,8.14,7.85,–,–,5.43,5.27
Cc1ccc(Nc2ncnc3sc(NC(=O)CCCCCC(=O)NO)cc23)cc1C,7.53,7.77,7.83,–,–,–,–
O=C(CCCCCCC(=O)Nc1cc2c(Nc3ccc(Cl)c(C(F)(F)F)c3)ncnc2s1)NO,7.66,7.94,7.63,–,–,–,–
O=C(CCCCC(=O)Nc1cc2c(Nc3ccc(Cl)c(C(F)(F)F)c3)ncnc2s1)NO,6.66,–,6.22,–,–,–,–
O=C(CCCCCC(=O)Nc1cc2c(Nc3ccc(Cl)c(C(F)(F)F)c3)ncnc2s1)NO,7.39,7.52,7.32,–,–,–,–
CCN(CC)c1ccc(Nc2ncnc3sc(NC(=O)CCCCCCC(=O)NO)cc23)cc1,7.48,7.36,7.40,–,–,5.35,5.23
O=C(CCCCC(=O)Nc1cc2c(Nc3ccc(F)c(Cl)c3)ncnc2s1)NO,6.88,6.25,6.90,–,–,–,–
O=C(CCCCCCC(=O)Nc1cc2c(Nc3ccc(N4CCCC4)c(F)c3)ncnc2s1)NO,7.84,8.03,7.85,–,–,5.39,5.33

# Continued by rising pIC50 (Histone deacetylase 1), values first:
pIC50 (Histone deacetylase 1),pIC50 [1],pIC50 (Histone deacetylase 3),inhibition [4],inhibition [5],SMILES,pIC50 [2],pIC50 [3]
7.87,8.05,7.93,–,–,O=C(CCCCCCC(=O)Nc1cc2c(Nc3ccc(Br)cc3F)ncnc2s1)NO,–,5.09
7.87,7.66,7.75,–,–,O=C(CCCCCCC(=O)Nc1cc2c(Nc3ccc(F)c(Cl)c3)ncnc2s1)NO,–,–
7.90,8.25,7.84,–,–,O=C(CCCCCCC(=O)Nc1cc2c(Nc3ccc(Cl)cc3F)ncnc2s1)NO,5.77,5.46
7.93,7.57,7.68,–,–,O=C(CCCCCC(=O)Nc1cc2c(Nc3ccccc3)ncnc2s1)NO,–,–
8.00,8.10,7.77,–,–,O=C(CCCCCCC(=O)Nc1cc2c(Nc3ccc(F)cc3F)ncnc2s1)NO,–,5.13
8.11,8.07,7.83,–,–,O=C(CCCCCCC(=O)Nc1cc2c(Nc3cccc(Cl)c3F)ncnc2s1)NO,–,5.09
8.20,8.18,7.87,–,–,O=C(CCCCCCC(=O)Nc1cc2c(Nc3ccc(I)cc3F)ncnc2s1)NO,–,–
8.27,8.47,8.09,–,–,O=C(CCCCCCC(=O)Nc1cc2c(Nc3ccc(N4CCCCC4)c(F)c3)ncnc2s1)NO,5.84,5.48
8.34,8.46,8.45,Dose-dependent effect,Dose-dependent effect,CCN(CC)c1ccc(Nc2ncnc3sc(NC(=O)CCCCCCC(=O)NO)cc23)cc1F,5.59,5.85
8.35,8.57,8.49,Dose-dependent effect,Dose-dependent effect,CN(C)c1ccc(Nc2ncnc3sc(NC(=O)CCCCCCC(=O)NO)cc23)cc1F,5.39,5.46
8.49,8.07,8.19,–,–,O=C(CCCCCCC(=O)Nc1cc2c(Nc3cccc(Cl)c3)ncnc2s1)NO,–,5.35
8.53,8.72,8.45,–,–,O=C(CCCCCCC(=O)Nc1cc2c(Nc3ccc(O[C@H]4CCOC4)c(Cl)c3)ncnc2s1)NO,5.65,5.38
8.70,8.27,8.53,Dose-dependent effect,Dose-dependent effect,Cc1ccc(Nc2ncnc3sc(NC(=O)CCCCCCC(=O)NO)cc23)cc1,5.63,5.42
8.72,7.92,8.46,Dose-dependent effect,Dose-dependent effect,O=C(CCCCCCC(=O)Nc1cc2c(Nc3ccccc3)ncnc2s1)NO,5.74,5.42
8.94,7.94,8.45,Dose-dependent effect,Dose-dependent effect,Cc1ccc(Nc2ncnc3sc(NC(=O)CCCCCCC(=O)NO)cc23)cc1C,5.79,5.62
